Results: US20240424477A1, “SYSTEM AND DEVICES FOR REMOVAL OF CONTAMINATES” (priority 2021, published 2024)

How the values were obtained:
[1] = conventional drinking water treatment, literature; cited from earlier work
[2] = system: MO protein; test: 19F NMR protein-ligand binding (peak height ratio B); set-up: species or system Moringa oleifera; conditions: PFAS 50 mg/L
Protocol: ^19F NMR. ^19F NMR measurements were taken on a Bruker AVANCE III 500 NMR. 3,000 scans were run for each sample with a 1 second relaxation delay. TFMAA was added to each sample as an internal standard. 90% H2O and 10% D20 were used for instrument lock and calibration. PFAS concentrations remained constant at 50 mg/L. […] of sample was used for each run. ^19F NMR spectra were obtained with a spectral width 113636.36 Hz and spectral frequency 470.57 MHz.
Spectrum were analyzed via MestreNova software for phase correction and baseline correction. Peak picking was completed automatically by the software. […] Intensities were normalized by TFMAA peak area at approximately −64.9 ppm. NMR data is included in the Supporting Information. The NMR peak height ratio, B, can be used to determine the relative ranking of binding affinities between protein-ligand complexes. B was calculated using Equation (1)
Where lb is the sum of ligand NMR heights in the presence of protein and lh is the sum of free ligand NMR heights.
^19F NMR. NMR can be used to study protein-ligand interactions by examining changes in peak height, peak width, and chemical shifts. A decrease in peak height indicates the formation of a protein-ligand complex. Previous literature has used ^19F NMR to look at PFAS binding to albumin proteins. In this work, PFAS (ligand) concentrations remain constant while MO protein concentrations were varied.

[3] = when protein concentrations increase

[Cl][Fe]([Cl])[Cl] [FeCl3, ferric chloride]
removal of PFOA and PFOS by coagulation [1]: about 20%

O=C(O)C(F)(F)C(F)(F)C(F)(F)C(F)(F)C(F)(F)C(F)(F)C(F)(F)F [PFOA, perfluorooctanoic acid]
binding affinity to MO protein (NMR peak height ratio, B) [2, 3]: similar

O=S(=O)(O)C(F)(F)C(F)(F)C(F)(F)C(F)(F)C(F)(F)C(F)(F)C(F)(F)C(F)(F)F [PFOS, perfluorooctanesulfonic acid]
binding affinity to MO protein (NMR peak height ratio, B) ([2]; lower protein concentrations): stronger affinity than MO-PFOA | binding affinity to MO protein (NMR peak height ratio, B) [2, 3]: similar

alum
removal of PFOA and PFOS by coagulation [1]: about 20%
